Source: patent publication US11850331B2, “Devices with anti-thrombogenic and anti-microbial treatment” (TELEFLEX MEDICAL INCORPORATED, priority 2013, dated 2023)

Assays:
[1] = background statement; cited from earlier work
human blood [2] = experiment: Thrombin clotting time in whole blood, alexidine solutions (Example 1); assay type: biochemical; details: partial clotting
Procedure: Solutions of varying alexidine concentrations (50-300 micrograms/mL) were incubated in individual test tubes, each containing 0.50 mL of human blood. The human blood was supplemented with 3.8% sodium citrate. The incubation was for 1 hour on a gyratory shaker set at 24 rpm and 37 degrees C. After 1 hour, 10 microliters of 500 Units/mL thrombin, and 60 microliters of 200 mM CaCl2 was added to each of the incubating blood samples. Blood clotting time was then measured using a stop watch. Table 1 discloses the results.

human blood [3] = experiment: Fluid phase thrombin clotting time, alexidine versus chlorhexidine (Example 4); assay type: biochemical; details: for clotting time: 6.25 ug/mL; for Thrombin Clotting Time in whole blood: replicates 1-5
Procedure: The following provides a side-by-side comparison of alexidine with chlorhexidine. Fluid phase experiments were conducted to compare the influences of alexidine and chlorhexidine on thrombin clotting time (Table 6). […] The reaction mixtures contained freshly drawn human blood, alexidine or chlorhexidine as indicated, and exogenously added thrombin. The experiment was repeated five times, as indicated by replicates 1-5. The concentrations of alexidine or chlorhexidine that were used in the experiments were zero ug/mL (baseline), 3.125, 6.25, 12.5, 25, 50, or 100 ug/mL, as indicated. […] This dramatic difference was also observed when higher concentrations of antimicrobials were used in the clotting reactions.

| Compound | solubility in water [1] | Thrombin Clotting Time in whole blood (human blood [2]; 0.2 mg/mL alexidine) | Thrombin Clotting Time in whole blood (human blood [2]; 0.3 mg/mL alexidine) | clotting time (human blood [3]) | Thrombin Clotting Time in whole blood (human blood [3]; 12.5 μg/mL) | Thrombin Clotting Time in whole blood (human blood [3]; 25 μg/mL) | Thrombin Clotting Time in whole blood (human blood [3]; 50 μg/mL) | Thrombin Clotting Time in whole blood (human blood [3]; 100 μg/mL) | potency in inhibiting blood clotting relative to chlorhexidine (human blood [3]; thrombin clotting time, fluid phase) |
| --- | --- | --- | --- | --- | --- | --- | --- | --- | --- |
| N=C(NCCCCCCNC(=N)NC(=N)Nc1ccc(Cl)cc1)NC(=N)Nc1ccc(Cl)cc1.O=C(O)[C@H](O)[C@@H](O)[C@H](O)[C@H](O)CO.O=C(O)[C@H](O)[C@@H](O)[C@H](O)[C@H](O)CO [CHG, chlorhexidine gluconate] | highly soluble in water |  |  |  |  |  |  |  |  |
| CCCCC(CC)CNC(=N)NC(=N)NCCCCCCNC(=N)NC(=N)NCC(CC)CCCC (stereo not shown) [alexidine] | relatively low solubility in water | Greater than 72 hours (partial clotting) | Greater than 72 hours (partial clotting) | about five | >24 h | >24 h | >24 h | >24 h | four times more potent |
| [H]/N=C(\N/C(=N/[H])NCCCCCCNC(=N)NC(=N)Nc1ccc(Cl)cc1)Nc1ccc(Cl)cc1 [chlorhexidine] |  |  |  | about thirty |  |  | >24 h | >24 h |  |
